Test results published in PubChem BioAssay (NCI).
Values joined by “and” are separate entries in the source; they are usually repeats but may differ in a detail not shown here. Equal entries are not always repeated.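 Grown in 96-well plates, cells were treated for 48 hours with each compound at five concentrations. Insufficient inhibition: endpoint recorded as highest concentration tested. At the GI50, growth is halved. Definition used: TGI = concentration required for complete inhibition of growth.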

How the values were obtained:
Assay in all cases: NCI-60 cell line screen, 48 h
SF-295 CNS = system: SF-295 CNS
SNB-19 CNS = system: SNB-19 CNS
MOLT-4 leukemia = system: MOLT-4 leukemia
SK-MEL-28 melanoma = system: SK-MEL-28 melanoma
NCI-H460 lung = system: NCI-H460 lung
COLO 205 colon = system: COLO 205 colon
IGROV1 ovarian = system: IGROV1 ovarian
SR leukemia = system: SR leukemia
OVCAR-4 ovarian = system: OVCAR-4 ovarian
NCI-H226 lung = system: NCI-H226 lung

Structure (SMILES) | TGI (SF-295 CNS) | TGI (SNB-19 CNS) | TGI (MOLT-4 leukemia) | TGI (SK-MEL-28 melanoma) | TGI (NCI-H460 lung) | TGI (COLO 205 colon) | TGI (IGROV1 ovarian) | TGI (SR leukemia) | TGI (OVCAR-4 ovarian) | TGI (NCI-H226 lung) | GI50 (SF-295 CNS) | GI50 (SNB-19 CNS) | GI50 (MOLT-4 leukemia) | GI50 (SK-MEL-28 melanoma) | GI50 (NCI-H460 lung) | GI50 (COLO 205 colon) | GI50 (IGROV1 ovarian) | GI50 (SR leukemia) | GI50 (OVCAR-4 ovarian) | GI50 (NCI-H226 lung)
Nc1nc(N)c(CCCCc2ccccc2)c(/C=C/c2ccc([N+](=O)[O-])cc2)n1 | 14.5 µM | 64.7 µM | 4.16 µM | 12.8 µM | 39.5 µM | 47.6 µM | 20.2 µM | 4.85 µM | 18.4 µM | 55.6 µM | – | – | – | – | – | – | – | – | – | –
N#Cc1ccc(O)c(C2=NCC(c3ccc(-c4ccccc4)cc3)O2)c1 (stereo not drawn) | 11.8 µM | 26.4 µM | 27.7 µM | 43.8 µM | 8.75 µM | 14.8 µM | 14.3 µM | > 100 µM | 10.1 µM | 12.7 µM | 0.335 µM | 0.489 µM | 0.482 µM | 1.34 µM | 0.279 µM | 0.349 µM | 0.478 µM | 0.529 µM | 0.32 µM | 0.589 µM
CN(CO)c1nc(N(C)CO)nc(N(C)CO)n1 | > 73.4 µM | 45.3 µM and 50.4 µM | 77 µM and 128 µM | 36.7 µM and 28.4 µM | 43.6 µM and 42.8 µM | 44.1 µM and 20.9 µM | 67.1 µM and 79.1 µM | > 77.1 µM and 1080 µM | 39.1 µM and 55.6 µM | > 70.3 µM and 21.4 µM | – | 29.8 µM | 23.5 µM | 18.3 µM | 17.2 µM and 13.9 µM | 20.9 µM | 16.1 µM | 28.4 µM | 18.9 µM and 23.8 µM | 24.8 µM and 9.99 µM
O=c1oc2c(O)c(O)cc3c(=O)oc4c(O)c(O)cc1c4c23 | > 100 µM | 57.3 µM | > 100 µM | > 100 µM | > 100 µM | > 100 µM | > 100 µM | > 100 µM | > 100 µM | 57.4 µM | > 100 µM | – | > 100 µM | > 100 µM | – | > 100 µM | – | – | – | –
Fc1ccc(-c2c(-c3ccncc3)[nH]c3cccnc23)cc1 | > 25 µM | > 25 µM | > 25 µM | > 25 µM | > 25 µM | > 25 µM | > 25 µM | > 25 µM | > 25 µM | > 25 µM | > 25 µM | > 25 µM | > 25 µM | > 25 µM | 18.3 µM | 18.6 µM | 8.45 µM | > 18.9 µM | > 25 µM | > 15.2 µM
CC(Oc1ccc2c(=O)cc(-c3ccccc3)oc2c1)C(=O)O (stereo not drawn) | > 100 µM | > 100 µM | > 100 µM | > 100 µM | > 100 µM | > 100 µM | > 100 µM | > 100 µM | > 100 µM | > 100 µM | – | – | – | – | – | – | – | – | – | –
COc1ccc(C(=O)/C=C/c2c(C(F)(F)F)nc3ccccn23)cc1OC | 42.5 µM | > 22 µM | 3.24 µM | > 100 µM | 2.99 µM | 3.95 µM | 3.41 µM | 0.964 µM | > 48.6 µM | > 100 µM | 3.15 µM | 3.77 µM | 0.711 µM | 7.1 µM | 0.933 µM | 1.86 µM | 0.508 µM | 0.272 µM | 3.28 µM | 3.97 µM
CC1(C)C2=CCCC(=O)[C@@]2(C)CC[C@@H]1O | > 100 µM | > 100 µM | > 100 µM | > 100 µM | > 100 µM | > 100 µM | > 100 µM | > 100 µM | > 100 µM | > 100 µM | – | – | – | – | – | – | – | – | – | –
CN(CCc1ccccn1)/[N+]([O-])=N/O (tested in a mixture with another compound) | > 100 µM | > 100 µM | > 100 µM | > 100 µM | > 100 µM | > 100 µM | > 100 µM | > 100 µM | > 100 µM | > 100 µM | – | – | – | – | – | – | – | – | – | –
CN1CCN(C(=O)[C@@]2(C)CC[C@]3(C)CC[C@]4(C)C(=CC[C@@H]5[C@@]6(C)CC[C@H](OC(=O)c7cccnc7)C(C)(C)[C@@H]6CC[C@]54C)[C@@H]3C2)CC1 | 3.05 µM | 3.53 µM | 4.78 µM | 3.34 µM | 3.33 µM | 3.94 µM | 3.89 µM | 4.08 µM | 3.59 µM | 24 µM | 1.62 µM | 1.74 µM | 1.92 µM | 1.79 µM | 1.78 µM | 1.83 µM | 1.93 µM | 0.937 µM | 1.78 µM | 10.2 µM
O=C(C(=O)c1cccnc1)c1cccnc1 | > 100 µM | > 100 µM | > 100 µM | > 100 µM | > 100 µM | > 100 µM | > 100 µM | > 100 µM | > 100 µM | > 100 µM | > 100 µM | > 100 µM | > 100 µM | > 100 µM | > 100 µM | > 100 µM | > 100 µM | > 100 µM | > 100 µM | > 100 µM
CC(C)c1ccc(C(c2c(O)c3ccccc3oc2=O)c2c(O)c3ccccc3oc2=O)cc1 | 52 µM | 49.9 µM | 21.9 µM | 40 µM | 37.6 µM | 34.2 µM | > 62.6 µM | 31.1 µM | 94 µM | 42.2 µM | – | – | – | – | – | – | – | – | – | –
COC(=O)c1cc2c([nH]c3ccccc32)c(-c2nc3ccccc3cc2CO)n1 | > 100 µM | > 100 µM | > 100 µM | > 100 µM | > 100 µM | > 100 µM | > 100 µM | > 100 µM | > 100 µM | > 100 µM | > 100 µM | > 100 µM | > 100 µM | > 100 µM | > 100 µM | > 100 µM | > 100 µM | > 100 µM | > 100 µM | > 100 µM
